Results as given in patent US9814727B2, “Piperazine phenothiazine derivatives for treating spasticity” (UNIVERSITE D'AIX-MARSEILLE, priority 2014, dated 2017).

System: Hoffmann reflex (H-reflex)
Experiment: Assessment of spasticity following spinal cord injury (H reflex)
Format: in vivo, rat
Conditions: 10 μg/kg i.v.
Procedure: Thoracic spinal section in rats was used as a model of SCI. Adult female Wistar Rats (225/250 g Charles River) were anaesthetized intraperitoneally with 50 mg/kg ketamine (Imalgen®, Merial, Duluth, Ga., USA) and 0.25 mg/kg Medetomidine (Domitor®, Janssen Pharmaceutica, Beerse, Belgium). The antibiotic Amoxycyline (Duphamox LA®, Pfizer, 150 mg/kg) was injected subcutaneously before the surgery. The skin was cut longitudinally over T8-T10 vertebra and a local anesthetic (2% Procaine hydrochloride, Pharmy H, Saint-Germain-en-Laye, France) was injected intramuscularly before cuting the paravertebral muscles. A laminectomy was performed at vertebral segment T9. The spinal cord was transected with microscissors at the level of the T8 spinal segment. Finally, paravertebral muscles and skin were sutured and rats were treated with buprenorphine for analgesia (1 injection before awakening from anaesthesia and 4 more injections over the next 48 h period). […]
At day 29 post lesion, the H reflex in the rats under ketamine anesthesia (100 mg/kg, i.p.) were measured using a pair of stainless steel needle electrodes transcutaneously inserted into the vicinity of the tibial nerve stimulation. […]
The H reflex was measured three times at frequencies of 0.2 Hz 1 Hz, 2 Hz and 5 Hz to have their baseline values. […] The H reflex was measured each 20 minutes, five times at frequencies of 0.2 Hz 1 Hz, 2 Hz and 5 Hz

`CN1CCN(CCCN2c3ccccc3Sc3ccc(Cl)cc32)CC1` [compound 2, 2-chloro-10-[3-(4-methyl-1-piperazinyl)propyl]-10H-phenothiazine] was tested, and the “decrease of the H reflex” value (80 min after injection, 1, 2 and 5 Hz, adult rats after SCI) was ~30% and the “effect on spasticity after spinal cord injury” value (80 minutes, adult rats 4 weeks after SCI) was “reduces spasticity”.
